Laboratory results reported in patent US20070167492A1, “Molluscicidal agents” (priority 2003, published 2007).

Tests used:
[1] = test system: Winter wheat (Kampa race) seeds; experiment: Seed germination test of treated winter wheat seeds (rolled in paper); format: in vivo; conditions: 3x50 seeds, 6 days at 22° C.
Method: (§1) Winter wheat (Kampa race; thousand grain weight of 51 grams) was used in an experiment to test the efficacy of the compositions of the present inventions in relation to known molluscicidal compounds. The seeds were disinfected for soil and germ moulds with 2 ml of Beret Gold (comprising 25 g/l of the fungicide fludioxonil) per kg of seed.
(§2) Sepiret® was added to all dry disinfections, and is the coating that was added to all agents of which the formulation was not suitable for coating.
Table 2 provides an overview of the amounts of diluent water and Sepiret® used for treating the wheat seeds. Table 2 further provides the quality of the coating and the percentages of germinating seeds in a seed germination test. In this test, the percentage of germination of 3×50 seeds, rolled in paper, was determined after 6 days at 22° C. (continuously) and a 16 hours light regime.

[2] = test system: Deroceras reticulatum (grey field slug); experiment: Example 1: pot test, treated winter wheat seed with 5 adult slugs per pot, 14 days; format: in vivo
Method: as §1, §2
The seeds were sown in earthenware pots with an internal diameter of 20 cm and a height of 18 cm, filled with 7 cm of potting soil (Trio BV, Weesp, The Netherlands) and with a top 2 cm of white quartz sand. A total of 40 seeds was placed in each pot, in a pattern of concentric circles on top of the quartz sand, the germ facing upwards. To each pot a total of 5 adult specimens of the test slug Deroceras reticulatum (grey field slug) were added. The pots were incubated at ±15° C. with a relative humidity of ±90% and light regime of ±12 hours light/12 hours dark, without artificial lighting. The pots were not irrigated overhead. In total, 4 parallel tests were performed for each test.
Following the addition of the slugs, the number of damaged seeds was counted after 2, 3, 7, 10 and 14 days. The number of plants present (germinated and not eaten or damaged by the slugs) was determined 3, 7, 10 and 14 days after the start of the test. […] The number of dead slugs was counted 2, 3, 7, 10 and 14 days after the start of the test (but not removed). Finally, on days 3, 7, 10 and 14 after the start of the test, the number fecal pellets was counted.
The data were statistically analysed by using F-tests (α=0.05) and pair-wise Student-tests.

[3] = 2 ml formulated per kg seed, 2 days after sowing
[4] = 2 ml formulated per kg seed, 3 days after sowing
[5] = 2 ml formulated per kg seed, 7 days after sowing
[6] = 2 ml formulated per kg seed, 10 days after sowing
[7] = 2 ml formulated per kg seed, 14 days after sowing
[8] = 4 ml formulated per kg seed, 2 days after sowing
[9] = 4 ml formulated per kg seed, 3 days after sowing
[10] = 4 ml formulated per kg seed, 7 days after sowing
[11] = 4 ml formulated per kg seed, 10 days after sowing
[12] = 4 ml formulated per kg seed, 14 days after sowing
[13] = 8 ml formulated per kg seed, 2 days after sowing
[14] = 8 ml formulated per kg seed, 3 days after sowing
[15] = 8 ml formulated per kg seed, 7 days after sowing
[16] = 8 ml formulated per kg seed, 10 days after sowing
[17] = 8 ml formulated per kg seed, 14 days after sowing

COc1cc(C=CC(=O)O)cc(OC)c1 [dimethoxycinnamic acid, 3,5-dimethoxycinnamic acid]
Percentage germinated ([1]; 2 ml formulated per kg seed): 75% | Percentage germinated ([1]; 4 ml formulated per kg seed): 75% | Percentage germinated ([1]; 8 ml formulated per kg seed): 38% | number of utilizable plants after 14 days ([2]; 2 ml formulated per kg seed): 0 | percentage of damaged seeds after 14 days ([2]; 2 ml formulated per kg seed): 99% | Mean number of damaged seeds per pot [2, 3]: 5.0 | Mean number of dead slugs per pot [2, 3]: 0 | Mean number fecal pellets per pot [2, 4]: 66 | Mean number of damaged seeds per pot [2, 4]: 17.5 | Mean number of dead slugs per pot [2, 4]: 0 | Mean number of plants present per pot [2, 4]: 3.5 | Mean number fecal pellets per pot [2, 5]: 115 | Mean number of damaged seeds per pot [2, 5]: 39.5 | Mean number of dead slugs per pot [2, 5]: 0.3 | Mean number of plants present per pot [2, 5]: 0 | Mean number fecal pellets per pot [2, 6]: 133 | Mean number of damaged seeds per pot [2, 6]: 39.3 | Mean number of dead slugs per pot [2, 6]: 0.3 | Mean number of plants present per pot [2, 6]: 0 | Mean number fecal pellets per pot [2, 7]: 141 | Mean number of damaged seeds per pot [2, 7]: 39.8 | Mean number of dead slugs per pot [2, 7]: 0.8 | Mean number of plants present per pot [2, 7]: 0 | number of utilizable plants after 14 days ([2]; 4 ml formulated per kg seed): 1.5 | percentage of damaged seeds after 14 days ([2]; 4 ml formulated per kg seed): 87% | Mean number of damaged seeds per pot [2, 8]: 4.3 | Mean number of dead slugs per pot [2, 8]: 0 | Mean number fecal pellets per pot [2, 9]: 46 | Mean number of damaged seeds per pot [2, 9]: 17.3 | Mean number of dead slugs per pot [2, 9]: 0.3 | Mean number of plants present per pot [2, 9]: 9.3 | Mean number fecal pellets per pot [2, 10]: 120 | Mean number of damaged seeds per pot [2, 10]: 31.8 | Mean number of dead slugs per pot [2, 10]: 0.3 | Mean number of plants present per pot [2, 10]: 1.8 | Mean number fecal pellets per pot [2, 11]: 138 | Mean number of damaged seeds per pot [2, 11]: 32.0 | Mean number of dead slugs per pot [2, 11]: 0.3 | Mean number of plants present per pot [2, 11]: 2.0 | Mean number fecal pellets per pot [2, 12]: 158 | Mean number of damaged seeds per pot [2, 12]: 34.8 | Mean number of dead slugs per pot [2, 12]: 1.0 | Mean number of plants present per pot [2, 12]: 2.0 | number of utilizable plants after 14 days ([2]; 8 ml formulated per kg seed): 1.0 | percentage of damaged seeds after 14 days ([2]; 8 ml formulated per kg seed): 84% | Mean number of damaged seeds per pot [2, 13]: 1.8 | Mean number of dead slugs per pot [2, 13]: 0 | Mean number fecal pellets per pot [2, 14]: 60 | Mean number of damaged seeds per pot [2, 14]: 13.0 | Mean number of dead slugs per pot [2, 14]: 0 | Mean number of plants present per pot [2, 14]: 1.5 | Mean number fecal pellets per pot [2, 15]: 106 | Mean number of damaged seeds per pot [2, 15]: 30.3 | Mean number of dead slugs per pot [2, 15]: 0 | Mean number of plants present per pot [2, 15]: 1.0 | Mean number fecal pellets per pot [2, 16]: 150 | Mean number of damaged seeds per pot [2, 16]: 31.5 | Mean number of dead slugs per pot [2, 16]: 0 | Mean number of plants present per pot [2, 16]: 1.5 | Mean number fecal pellets per pot [2, 17]: 158 | Mean number of damaged seeds per pot [2, 17]: 33.8 | Mean number of dead slugs per pot [2, 17]: 0 | Mean number of plants present per pot [2, 17]: 1.5 | differences in the number of damaged seeds ([2]; Example 1, dosages tested): did not result in significant differences | protection / slug controlling effect (conclusion) ([2]; Example 1, winter wheat seed treatment, dosages tested): no slug controlling effect
